Assay results reported in ChEMBL document CHEMBL3352017, “2-Guanidinoquinazolines as new inhibitors of the STAT3 pathway” (Bioorg Med Chem Lett, 2014).
pIC50: −log10 of the molar value. Calls of active or inactive are those of the source. The rule behind the calls is not given here.

Key:
[1] = Selectivity index, ratio of IC50 for IFNgamma-induced STAT1 pathway in human Cal33 cells to IC50 for IL-6-induced STAT3 pathway in human Cal33 cells; assay type: cell-based; conditions: CAL-33
cells [2] = conditions: Homo sapiens
Description: Growth inhibition of human 686LN cells

cells [3] = conditions: Homo sapiens, OSC19
Description: Growth inhibition of human OSC19 cells

[4] = target: T1, Signal transducer and activator of transcription 1-alpha/beta (Homo sapiens) (UniProt P42224); assay: Inhibition of IFNgamma-induced STAT1 pathway in human Cal33 cells at 50 uM; assay type: cell-based; conditions: CAL-33
T1 sequence (whole entry): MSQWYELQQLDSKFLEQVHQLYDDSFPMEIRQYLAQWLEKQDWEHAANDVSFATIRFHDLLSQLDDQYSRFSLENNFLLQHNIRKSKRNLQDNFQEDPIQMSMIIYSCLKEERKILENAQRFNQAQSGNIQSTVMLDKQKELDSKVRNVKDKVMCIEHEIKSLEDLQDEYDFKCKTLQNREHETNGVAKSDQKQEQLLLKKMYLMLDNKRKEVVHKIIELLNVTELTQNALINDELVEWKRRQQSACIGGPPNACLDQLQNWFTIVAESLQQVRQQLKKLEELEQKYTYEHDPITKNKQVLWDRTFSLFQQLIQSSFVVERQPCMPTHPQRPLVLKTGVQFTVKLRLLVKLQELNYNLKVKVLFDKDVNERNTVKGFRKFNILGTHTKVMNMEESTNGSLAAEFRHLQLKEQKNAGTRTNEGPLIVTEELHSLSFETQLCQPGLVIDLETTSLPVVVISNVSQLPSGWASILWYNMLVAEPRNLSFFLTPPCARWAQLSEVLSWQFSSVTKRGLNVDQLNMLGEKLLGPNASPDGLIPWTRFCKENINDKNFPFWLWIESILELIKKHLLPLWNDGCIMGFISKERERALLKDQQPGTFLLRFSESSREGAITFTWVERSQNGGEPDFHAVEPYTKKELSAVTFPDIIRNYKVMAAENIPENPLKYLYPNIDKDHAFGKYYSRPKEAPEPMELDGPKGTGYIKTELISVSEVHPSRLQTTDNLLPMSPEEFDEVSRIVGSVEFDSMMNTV

[5] = target: Tyrosine-protein kinase JAK1 (Homo sapiens) (UniProt P23458); assay: Inhibition of JAK1 phosphorylation in human Cal33 cells by Western blot analysis; assay type: cell-based; conditions: CAL-33
[6] = target: Tyrosine-protein kinase JAK2 (Homo sapiens) (UniProt O60674); assay: Inhibition of JAK2 phosphorylation in human Cal33 cells by Western blot analysis; assay type: cell-based; conditions: CAL-33
cells [7] = conditions: Homo sapiens, CAL-33
Description: Growth inhibition of human CAL33 cells

FaDu = assay: cells; conditions: Homo sapiens
Description: Growth inhibition of human FADU cells

Chain of Tyrosine-protein kinase JAK2 (Homo sapiens) (O60674 whole entry): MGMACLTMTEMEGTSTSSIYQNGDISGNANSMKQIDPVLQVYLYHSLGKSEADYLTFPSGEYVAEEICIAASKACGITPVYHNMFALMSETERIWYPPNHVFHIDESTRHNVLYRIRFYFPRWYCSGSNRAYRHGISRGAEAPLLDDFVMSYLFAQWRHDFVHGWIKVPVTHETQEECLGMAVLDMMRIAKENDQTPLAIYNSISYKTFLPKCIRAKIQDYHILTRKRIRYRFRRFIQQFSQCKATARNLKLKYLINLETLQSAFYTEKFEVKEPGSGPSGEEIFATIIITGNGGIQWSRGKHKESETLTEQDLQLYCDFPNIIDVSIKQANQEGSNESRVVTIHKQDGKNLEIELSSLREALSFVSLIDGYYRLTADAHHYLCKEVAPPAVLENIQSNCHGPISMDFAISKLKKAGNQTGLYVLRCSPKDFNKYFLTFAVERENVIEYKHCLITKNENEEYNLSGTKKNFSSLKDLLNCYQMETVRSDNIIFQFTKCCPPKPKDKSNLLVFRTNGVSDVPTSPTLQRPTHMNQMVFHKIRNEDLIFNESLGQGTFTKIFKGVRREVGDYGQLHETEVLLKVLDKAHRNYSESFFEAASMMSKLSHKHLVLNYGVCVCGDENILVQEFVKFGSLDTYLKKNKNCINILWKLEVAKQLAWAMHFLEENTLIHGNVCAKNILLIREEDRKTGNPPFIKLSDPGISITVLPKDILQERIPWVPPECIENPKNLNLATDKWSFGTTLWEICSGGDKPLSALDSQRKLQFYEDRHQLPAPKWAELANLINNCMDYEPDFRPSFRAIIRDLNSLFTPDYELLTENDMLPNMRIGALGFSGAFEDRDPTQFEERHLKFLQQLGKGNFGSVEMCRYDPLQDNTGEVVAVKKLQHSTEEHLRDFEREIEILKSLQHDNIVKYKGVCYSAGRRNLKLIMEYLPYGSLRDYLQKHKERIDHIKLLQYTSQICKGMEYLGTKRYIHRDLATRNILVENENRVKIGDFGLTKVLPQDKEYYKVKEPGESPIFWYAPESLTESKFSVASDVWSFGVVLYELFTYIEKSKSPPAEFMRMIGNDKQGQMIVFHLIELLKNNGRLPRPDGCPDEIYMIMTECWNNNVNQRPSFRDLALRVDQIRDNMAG
Chain of Tyrosine-protein kinase JAK1 (Homo sapiens) (P23458 whole entry): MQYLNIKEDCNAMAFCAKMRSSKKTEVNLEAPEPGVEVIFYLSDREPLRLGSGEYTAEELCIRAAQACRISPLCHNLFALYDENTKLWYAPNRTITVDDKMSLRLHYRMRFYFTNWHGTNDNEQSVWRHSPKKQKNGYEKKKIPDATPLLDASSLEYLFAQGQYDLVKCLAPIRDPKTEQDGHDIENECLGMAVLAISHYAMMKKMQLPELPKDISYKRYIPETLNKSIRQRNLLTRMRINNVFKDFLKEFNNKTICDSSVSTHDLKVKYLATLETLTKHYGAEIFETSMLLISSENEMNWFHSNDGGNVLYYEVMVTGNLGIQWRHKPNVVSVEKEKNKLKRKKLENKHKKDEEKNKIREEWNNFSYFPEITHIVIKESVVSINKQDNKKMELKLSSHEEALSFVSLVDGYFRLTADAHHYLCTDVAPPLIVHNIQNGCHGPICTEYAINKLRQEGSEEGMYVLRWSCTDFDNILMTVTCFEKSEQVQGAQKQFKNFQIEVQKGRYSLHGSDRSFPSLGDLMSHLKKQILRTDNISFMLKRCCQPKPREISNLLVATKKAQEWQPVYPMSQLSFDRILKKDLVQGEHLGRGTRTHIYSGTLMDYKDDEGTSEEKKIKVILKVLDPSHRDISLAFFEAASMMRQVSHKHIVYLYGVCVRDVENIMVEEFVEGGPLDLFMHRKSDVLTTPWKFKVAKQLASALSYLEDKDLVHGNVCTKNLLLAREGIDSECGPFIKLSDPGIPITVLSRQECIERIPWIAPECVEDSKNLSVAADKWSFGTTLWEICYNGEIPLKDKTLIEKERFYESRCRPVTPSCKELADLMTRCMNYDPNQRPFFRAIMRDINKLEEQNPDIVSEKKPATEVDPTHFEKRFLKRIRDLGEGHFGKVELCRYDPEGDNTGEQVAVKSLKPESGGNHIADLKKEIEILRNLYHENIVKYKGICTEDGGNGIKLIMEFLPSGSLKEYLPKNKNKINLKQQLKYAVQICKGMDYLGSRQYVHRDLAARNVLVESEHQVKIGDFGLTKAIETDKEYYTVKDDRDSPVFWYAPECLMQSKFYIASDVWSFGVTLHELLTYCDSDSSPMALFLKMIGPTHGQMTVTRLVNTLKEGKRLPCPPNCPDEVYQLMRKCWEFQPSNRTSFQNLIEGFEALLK

Cc1cc(C)c2nc(Nc3nc(C)c(C)c(O)n3)nc(C)c2c1
Ratio IC50 [1]: > 7

Cc1nc(Nc2nc(=O)cc(-c3ccccc3)[nH]2)nc2cc3c(cc12)OCO3
Ratio IC50 [1]: > 3

CCOc1ccc2nc(Nc3nc(=O)cc(-c4ccccc4)[nH]3)nc(C)c2c1
pIC50 (cells [2]): 4.42
pIC50 (cells [3]): 4.72

Cc1cc2nc(Nc3nc(=O)c(C)c(C)[nH]3)nc(C)c2cc1C
Ratio IC50 [1]: > 4

CCOc1ccc2nc(NC3=NC(C)=CC(C)(C)N3)nc(C)c2c1
inhibition [4]: inactive
inhibition [5]: inactive
inhibition [6]: inactive
pIC50 (cells [2]): 4.43
pIC50 (cells [7]): 4.53
pIC50 (FaDu): 4.73
pIC50 (cells [3]): 4.77

COc1ccc2nc(Nc3nc(=O)cc(C)[nH]3)nc(C)c2c1
Ratio IC50 [1]: > 1

CC1=CC(C)(C)N=C(Nc2nc(C)c3cc(C)ccc3n2)N1
pIC50 (cells [2]): 4.31
pIC50 (cells [3]): 4.89

CC1=CC(C)(C)N=C(Nc2nc(C)c3cc(C)cc(C)c3n2)N1
pIC50 (cells [2]): 5.62
pIC50 (cells [7]): 5.92
pIC50 (FaDu): 5.72
pIC50 (cells [3]): 5.49
